Laboratory results published in the supplement of paper PMC10307832.

Assays:
Assay in all cases: relative viability (nuclei count vs DMSO), 5 days (fraction); higher = more cells survive
Phenformin = compound: N=C(N)NC(=N)NCCc1ccccc1 [Phenformin] (anchor plate); conditions: 250 µM
Procedure, shortened: (§1)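 Five library-drug doses spaced by √10 were pinned onto vehicle-anchored 1536-well plates of lung cancer cell lines that had been kept overnight at 37 °C. Cells went 5 days without medium change, then were fixed, permeabilised and Hoechst-stained together, imaged at 4× and counted by MetaXpress. Viability is the ratio of treated-well to vehicle-well nuclei, taken as a median over plates. Plates required control CV below 25% and at least one doubling.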

AT9283 = compound: O=C(Nc1c[nH]nc1-c1nc2ccc(CN3CCOCC3)cc2[nH]1)NC1CC1 [AT9283]
Procedure, shortened: as §1

Erlotinib = compound: C#Cc1cccc(Nc2ncnc3cc(OCCOC)c(OCCOC)cc23)c1 [Erlotinib]
Procedure, shortened: as §1

Erlotinib + Palbociclib = compound: C#Cc1cccc(Nc2ncnc3cc(OCCOC)c(OCCOC)cc23)c1 [Erlotinib] + CC(=O)c1c(C)c2cnc(Nc3ccc(N4CCNCC4)cn3)nc2n(C2CCCC2)c1=O [Palbociclib] (partner 0.5 µM)
Procedure, shortened: (§2)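 Relative viability is defined as nuclei in treated wells over nuclei in vehicle wells. Duplicate plates were run and medians reported. Lung cancer cell lines in 1536-well plates were dosed by pin tool one day after seeding, with one drug or with a fixed anchor-drug dose plus five library-drug doses (not always all listed) in √10 steps, and nuclei were counted after 5 days.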

AT9283 + Olaparib = compound: O=C(Nc1c[nH]nc1-c1nc2ccc(CN3CCOCC3)cc2[nH]1)NC1CC1 [AT9283] + O=C(c1cc(Cc2n[nH]c(=O)c3ccccc23)ccc1F)N1CCN(C(=O)C2CC2)CC1 [Olaparib] (partner 8 µM)
Procedure, shortened: as §2

Cell Line | relative viability (Phenformin) | relative viability (AT9283; 0.003 µM) | relative viability (AT9283; 0.03 µM) | relative viability (AT9283; 0.09487 µM) | relative viability (AT9283; 0.3 µM) | relative viability (Erlotinib; 0.02 µM) | relative viability (Erlotinib; 0.6325 µM) | relative viability (Erlotinib; 2 µM) | relative viability (Erlotinib + Palbociclib; first compound 0.02 µM) | relative viability (Erlotinib + Palbociclib; first compound 0.2 µM) | relative viability (Erlotinib + Palbociclib; first compound 0.6325 µM) | relative viability (Erlotinib + Palbociclib; first compound 2 µM) | relative viability (AT9283 + Olaparib; first compound 0.003 µM) | relative viability (AT9283 + Olaparib; first compound 0.03 µM) | relative viability (AT9283 + Olaparib; first compound 0.09487 µM) | relative viability (AT9283 + Olaparib; first compound 0.3 µM) | relative viability (Erlotinib; 0.2 µM)
NCI-H3122 | 0.386 | 0.982 | 0.963 | 0.619 | 0.236 | 0.987 | 1 | 0.977 | 0.195 | 0.215 | 0.159 | 0.195 | 0.561 | 0.571 | 0.351 | 0.241 | 
PC-3 [JPC-3] | 0.469 | 1.03 | 0.961 | 0.868 | 0.498 | 0.945 | 0.459 | 0.407 | 0.536 | 0.473 | 0.339 | 0.376 | 1.31 | 1.03 | 0.844 | 0.607 | 0.636
PC-14 | 0.608 | 1.05 | 0.823 | 0.377 | 0.133 | 0.574 | 0.289 | 0.228 | 0.173 | 0.0873 | 0.0953 | 0.0635 | 0.264 | 0.151 | 0.074 | 0.0669 | 0.31
RERF-LC-KJ | 0.42 | 0.986 | 0.667 | 0.431 | 0.27 | 0.947 | 0.871 | 0.716 | 1.02 | 1.01 | 0.93 | 0.759 | 0.962 | 0.485 | 0.267 | 0.237 | 0.879
SK-LU-1 | 0.523 | 1.06 | 0.691 | 0.312 | 0.335 | 1.11 | 1.13 | 0.907 | 0.372 | 0.432 | 0.376 | 0.357 | 0.495 | 0.479 | 0.259 | 0.258 | 1.11
SK-MES-1 | 0.665 | 1.05 | 0.975 | 0.581 | 0.232 | 1.02 | 0.498 | 0.41 | 0.35 | 0.257 | 0.327 | 0.293 | 0.783 | 0.677 | 0.415 | 0.144 | 0.809
SW 900 | 0.717 | 0.755 | 1.01 | 0.626 | 0.358 | 1 | 0.863 | 0.65 | 0.492 | 0.48 | 0.472 | 0.398 | 0.882 | 0.783 | 0.507 | 0.312 | 0.803
SW 1573 | 0.385 | 0.913 | 0.326 | 0.222 | 0.177 | 1.02 | 1.02 | 0.925 | 0.38 | 0.362 | 0.37 | 0.355 | 0.485 | 0.159 | 0.159 | 0.14 | 0.955
UMC-11 | 0.318 | 0.903 | 0.171 | 0.146 | 0.212 | 0.956 | 1.18 | 0.964 | 0.364 | 0.328 | 0.345 | 0.382 | 0.712 | 0.218 | 0.213 | 0.23 | 0.944
